Each structure is given as a SMILES string. Like-named read-outs stand apart in the source and are kept apart here.

In one assay the test system is H2170. Kind of assay: IC50 assay, NSCLC cell lines (Cell Titer Glo, total ATP). Type of assay: cell-based. To be noted: Homo sapiens. How it is done: (§1) Cells were plated at ˜15% confluence in a media comprising 5% concentration of fetal bovine serum supplemented with RPMI, which included 2 mM L-Glutamine in a 96 well dish. […] Following three days of incubation in a 5% CO2 incubator, the total ATP in each well was quantified using Cell Titer Glo (Promega). […] The solid lines represent the medians.
On the technique in general: In ATP-based viability assays light output follows the ATP content of the culture.

A further assay relates to H838. The description is as above. The assay is classed as cell-based. To be noted: Homo sapiens. How it is done:
as §1

A further assay relates to WI38. The description is as above. Type of assay: cell-based. To be noted: Homo sapiens. The protocol: as §1
The test system of assay [1] is H1155 RBM39 G268V knock-in cells. Kind of assay: Cell viability assay, RBM39 G268V knock-in. Type of assay: cell-based, human. How it is done: (§2) 12-point dose responses were performed on 96-well assay plates with cell plating (1500-4000 cell per well) on day 1, compound addition on day 2, and survival measurement on day 5. Compounds were diluted in DMSO before adding to the cells. Final DMSO concentration was 0.5%. Cell survival assay was performed using CellTiter-Glo Luminescent Cell Viability Assay kit (Promega) that measures cellular ATP content. Luminescence was recorded by EnVison multimode plate reader (Perkin Elmer). IC50 was determined with GraphPad Prism using baseline correction (by normalizing to DMSO control), the asymmetric (five parameter) equation and least squares fit.
(§3) sgRNA targeting RBM39 (5′-[…]-3′) was cloned into the pSpCas9(BB)-2A-Puro (PX459) vector (Addgene 62988). For RBM39 G268V knock-in, 1 million HCT-116 or H1155 cells were nucleofected (using 4D-Nucleofector, Lonza) with PX459-RBM39 sgRNA and the single-stranded oligo 5′-[…] […] […] […]-3′ (SEQ ID NO: 13).

For assay [2], the system named is HCT-116 RBM39 G268V knock-in cells. In words: Cell viability assay, RBM39 G268V knock-in. Type of assay: cell-based, human. The protocol:
as §2, §3

For the next assay, the system named is DCAF15−/− H1155 cells. Kind of assay: Cell viability assay, DCAF15−/− cells. The assay is classed as cell-based, human. To be noted: at concentrations as high as 50 μM. The protocol: as §2
Two independent guide RNAs targeting DDB1, DDA1, DCAF15 were cloned into PX459. 0.2 million H1155 RBM39-AcGFP cells were transfected with PX459 sgRNA constructs and selected with 2 μg/ml puromycin to enrich for transfected cells. […] Cells were then trypsinized and the expression of RBM39-AGFP was quantified with flow cytometry. H1155 cells transfected with DCAF15 guide RNA were sparsely plated on 10 cm^2 plates and clones were isolated. Genomic DNA sequence flanking the cut site were amplified and sequenced to identify DCAF15−/− clones.

Assay [3] has as its system H1155 cells transduced with DCAF15-3xFLAG cDNA. In words: Cell viability assay, DCAF15 overexpression. The assay is classed as cell-based, human. To be noted: H1155 cells expressing higher than normal levels of DCAF15.
For assay [4], the target named is T1, DCAF15-3xFLAG and RBM39Δ150 (Homo sapiens, UniProt Q14498+Q66K64).
T1 construct: Full-length cDNAs encoding CUL4A, CUL4B, DCAF15, and DDB1 were cloned into pLVX IRES Puro; made in house; host or cells: RBM39Δ150: Sf9 (baculovirus); DCAF15-3xFLAG: anti-FLAG beads from HCT-116 or 293T cells stably expressing it
T1 sequence (Q66K64 whole entry, stated change not applied): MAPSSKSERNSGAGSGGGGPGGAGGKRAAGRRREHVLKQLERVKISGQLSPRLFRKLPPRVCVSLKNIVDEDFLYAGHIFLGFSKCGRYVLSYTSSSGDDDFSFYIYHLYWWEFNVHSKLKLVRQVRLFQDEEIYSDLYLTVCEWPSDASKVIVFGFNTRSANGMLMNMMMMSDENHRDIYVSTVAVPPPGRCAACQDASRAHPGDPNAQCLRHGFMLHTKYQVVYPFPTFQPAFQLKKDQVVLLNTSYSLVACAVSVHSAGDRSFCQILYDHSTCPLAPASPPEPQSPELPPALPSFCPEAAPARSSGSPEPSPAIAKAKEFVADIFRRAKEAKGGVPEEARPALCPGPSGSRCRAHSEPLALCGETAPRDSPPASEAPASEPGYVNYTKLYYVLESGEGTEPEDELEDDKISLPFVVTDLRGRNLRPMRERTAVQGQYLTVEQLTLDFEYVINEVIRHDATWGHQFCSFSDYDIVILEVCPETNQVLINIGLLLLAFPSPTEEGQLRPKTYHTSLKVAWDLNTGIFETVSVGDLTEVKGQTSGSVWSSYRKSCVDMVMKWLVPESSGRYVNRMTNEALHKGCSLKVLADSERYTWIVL
T1 sequence (Q14498 151-530 limits assumed, stated change not applied): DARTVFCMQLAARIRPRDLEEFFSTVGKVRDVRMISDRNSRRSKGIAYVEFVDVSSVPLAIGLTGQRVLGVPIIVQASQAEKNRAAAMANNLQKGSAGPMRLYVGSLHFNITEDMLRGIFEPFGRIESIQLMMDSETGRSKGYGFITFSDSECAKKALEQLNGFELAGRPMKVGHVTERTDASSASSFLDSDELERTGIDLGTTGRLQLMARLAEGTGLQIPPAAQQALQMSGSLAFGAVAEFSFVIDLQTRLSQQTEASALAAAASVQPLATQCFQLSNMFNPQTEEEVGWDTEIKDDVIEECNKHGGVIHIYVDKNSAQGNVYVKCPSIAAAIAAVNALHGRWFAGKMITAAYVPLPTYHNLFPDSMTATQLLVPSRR
T1 sequence (Q16531 whole entry partner): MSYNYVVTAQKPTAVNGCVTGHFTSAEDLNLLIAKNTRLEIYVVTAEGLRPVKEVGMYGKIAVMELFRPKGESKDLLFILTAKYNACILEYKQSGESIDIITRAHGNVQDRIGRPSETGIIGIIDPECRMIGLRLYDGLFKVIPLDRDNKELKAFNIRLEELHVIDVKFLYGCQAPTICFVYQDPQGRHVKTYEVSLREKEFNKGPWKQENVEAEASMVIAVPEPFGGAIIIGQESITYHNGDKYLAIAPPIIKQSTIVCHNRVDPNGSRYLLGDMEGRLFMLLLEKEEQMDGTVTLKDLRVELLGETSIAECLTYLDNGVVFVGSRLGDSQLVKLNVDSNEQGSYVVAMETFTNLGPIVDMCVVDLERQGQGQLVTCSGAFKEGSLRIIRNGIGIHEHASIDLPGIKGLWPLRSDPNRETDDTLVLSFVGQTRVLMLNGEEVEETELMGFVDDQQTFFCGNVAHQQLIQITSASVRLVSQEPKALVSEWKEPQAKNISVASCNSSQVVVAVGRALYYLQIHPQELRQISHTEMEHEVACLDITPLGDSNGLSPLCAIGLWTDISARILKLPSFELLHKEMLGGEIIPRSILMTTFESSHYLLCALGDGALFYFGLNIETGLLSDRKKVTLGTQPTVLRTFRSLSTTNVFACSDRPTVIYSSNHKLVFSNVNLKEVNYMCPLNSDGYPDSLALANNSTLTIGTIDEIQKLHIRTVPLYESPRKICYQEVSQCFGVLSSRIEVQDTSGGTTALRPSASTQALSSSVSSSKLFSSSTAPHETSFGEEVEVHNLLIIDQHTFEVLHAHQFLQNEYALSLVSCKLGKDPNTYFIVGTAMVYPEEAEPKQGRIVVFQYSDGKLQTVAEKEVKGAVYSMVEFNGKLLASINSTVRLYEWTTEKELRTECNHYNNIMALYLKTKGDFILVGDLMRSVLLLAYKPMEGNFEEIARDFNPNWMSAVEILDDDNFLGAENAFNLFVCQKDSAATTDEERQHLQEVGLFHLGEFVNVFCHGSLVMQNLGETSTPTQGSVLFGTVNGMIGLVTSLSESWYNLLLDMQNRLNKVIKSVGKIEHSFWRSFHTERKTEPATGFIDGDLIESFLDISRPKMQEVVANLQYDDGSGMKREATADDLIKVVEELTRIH
In words: RBM39Δ150 pulldown assay. The assay is classed as binding. How it is done: RBM39 lacking the first 150 amino acids after the start codon (RBM39Δ150) was cloned into the pFastBac1 (Life Technologies) vector. Site-directed Mutagenesis of RBM39 was performed using Q5 site-directed mutagenesis kit (NEB). DCAF15-GST (C-terminal GST tag) and DDB1 were also cloned into pFastBac1. The production of baculovirus was carried out following vendor's instructions. Protein was expressed in SF9 cells by infection with each protein specific baculovirus, and cells were harvested 48 hr later and frozen in liquid nitrogen. For purification of RBM39Δ150, frozen cells were pulverized by cryomill and resuspended in lysis buffer (40 mM Tris, pH 7.5, 225 mM NaCl, 1× […] Protease inhibitor). The lysate was passed through a 22 gauge needle 2 times followed by ultracentrifugation at 25000 rpm for 30 min. Clarified lysate was incubated with Ni-NTA agarose (Qiagen) for 30 min with rotation at 4° C. Resin and bound protein were washed with wash buffer 1 (40 mM Tris, pH 7.5, 225 mM NaCl) followed by wash buffer 2 (40 mM Tris, pH 7.5, 20 mM imidazole, 225 mM NaCl). Proteins were eluted with elution buffer (40 mM Tris, pH 7.5, 300 mM imidazole, 225 mM NaCl) and concentrated to 0.5 ml. Concentrated proteins were then fractionated on Superdex 200 Increase 10/300 GL (GE Healthcare). RBM39Δ150 and mutants eluted at 14.8 ml after injection and were stored at −80° C. in 40 mM Tris, pH 7.5, 225 mM NaCl. For purification of DCAF15-GST/DDB1, Sf9 cells co-infected with DCAF15-GST and DDB1 baculoviruses were lysed in PBS supplemented with 0.1% NP40, 1× […] Protease inhibitors, and 0.5 mM PMSF. The lysate was passed through a 22 gauge needle 2 times followed by centrifugation at 7000 rpm for 15 min. Clarified lysate was incubated with Glutathione Sepharose 4B resin (GE healthcare) for 30 min with rotation at 4° C. Resin was washed with PBS for three times before elution with 50 mM Tris, 10 mM glutathione, pH 8.
HCT-116 cells stably expressing DDB1-3xFLAG, CUL4A-3xFLAG, CUL4B-3xFLAG, or to DCAF15-3xFLAG were lysed in 1×PBS, 0.1% NP40, and 1× […] protease inhibitor (1 ml per […] plate). […]

For the compound `NS(=O)(=O)c1ccc(S(=O)(=O)Nc2cccc3c(Cl)c[nH]c23)cc1` [Indisulam, indisulam], the concentration for half-maximal inhibition (IC50) (commonly the concentration needed to halve the response being measured) in the assay on H2170 (NCI-H2170, read-out: Indisulam IC50 (log 10) (converted), U2AF1 WT) was 29.6 µM; in the assay with H2170 (NCI-H2170, read-out: Indisulam IC50, U2AF1 WT) it was 29.6 µM; in the assay with H838 (NCI-H838, read-out: Indisulam IC50 (log 10) (converted), U2AF1 WT), 1030 nM; in the assay with H838 (NCI-H838, read-out: Indisulam IC50, U2AF1 WT), 1030 nM; in the assay with WI38 (WI-38, read-out: Indisulam IC50 (log 10) (converted), U2AF1 WT), 10 µM; in the assay on WI38 (WI-38, read-out: Indisulam IC50, U2AF1 WT), 10 µM. Further, the IC50 in assay [2] (Homo sapiens, HCT-116, two independent RBM39 G268V knock-in HCT-116 clones) was determined as 38.9 µM; in assay [2] (two independent RBM39 G268V knock-in HCT-116 clones) it was 52.2 µM. In addition, the “effect of G268V editing on indisulam sensitivity” value in assay [1] is reported as “indisulam resistance”. Besides, in the assay with DCAF15−/− H1155 cells, the “sensitivity of DCAF15−/− cells” value was “insensitive”. The “sensitivity vs mock treated cells” value in assay [3] is “more sensitive”. In addition, the “co-purification of DCAF15 with RBM39Δ150” value in assay [4] (in the presence of indisulam, not DDB1, CUL4A or CUL4B) is given as “co-purified”. In assay [4] (wild type RBM39Δ150), the “indisulam concentration at which RBM39Δ150-DCAF15 complex was apparent” value is 0.10 µM.

Source of the values: patent US20180140578A1, “METHODS AND COMPOSITIONS FOR THE DIAGNOSIS AND SELECTIVE TREATMENT OF CANCER” (Board of Regents of the University of Texas System, priority 2016, published 2018).
